# Legend:
# [1] = DPPH free radical scavenging assay; details: means ± SD (n = 3); amount needed to scavenge 50% of DPPH radicals
# Protocol: Over-production and the accumulation of free radicals inside the body leads to a phenomenon known as oxidative stress, which causes many serious diseases such as cancer, cardiovascular, and inflammation. Moreover, the harmful effects of this phenomenon can be reduced via using antioxidant compounds as free radical scavengers. Therefore, free radical scavenging capabilities were determined for all compounds by 2,2-diphenyl-1-picrylhydrazyl (DPPH) assay using ascorbic acid (AA) as standard for comparison. The DPPH reducing capabilities of the synthetic analogs 6a–d were evaluated by determining their IC50 values. […] The IC50 value corresponds to the concentration of a sample, which has the ability to scavenge 50% of the free radicals present in the reaction mixture. Low IC50 values indicate that the compound in the sample has high antioxidant activity. […] At the same time, the analog 6c with pyrimidine moiety had the lowest antioxidant activity (9.2 × 10^−5 µM). […]
# To 1 mL of various concentrations of ascorbic acid, neocryptolepine and indoloquinoline analogs prepared from methanol, 1 mL solution of DPPH, 0.1 mM was added. […] After 20 min incubation in the dark, absorbance was recorded at 517 nm. […] The percentage scavenging of the extract was calculated.
# EAC-induced solid tumor = assay: Antitumor activity: reduction in tumor volume of EAC-induced solid tumor; type: in vivo, Swiss female albino mice; details: day 12 (last day of treatment), 100 mg/kg SC daily for five consecutive days
# Protocol: The aim of this study is to characterize indoloquinoline analogs 6a–d curative ability and antineoplastic activity on solid-form of Ehrlich tumors. Tumor volume is a potential biomarker for Ehrlich tumor development. The induction of solid tumor in Swiss female mice performed by inserting 0.2 mL of EAC cells (2 × 10^6 cell/mL) subcutaneously (SC) between thighs of the lower limb. When the tumor volume reached 15–20 mm^3 (Seven days after tumor induction), the mice were randomly divided into 6 groups (n = 10), five groups were injected subcutaneously with thalidomide and indoloquinoline analogs 6a–d (100 mg/kg) daily for five consecutive days, the sixth group (positive control group) were given DMSO/saline (0.3/0.7). The 8th day is considered the zero days of treatment. The tumor volume was daily measured with a vernier caliper for four days stated from day eight.
# Thalidomide and indoloquinoline derivatives 6a–d were tested for their antitumor effect; the test was done in vivo on mice-bearing solid tumors. The induction of solid tumor in Swiss female mice performed by inserting 0.2 mL of EAC cells (2 × 10^6 cell/mL) subcutaneously (SC) between thighs of the lower limb. Seven days after tumor induction, animals were divided into 6 groups (n = 10), five groups were injected subcutaneously with 100 mg/kg of tested compounds daily for 5 consecutive days, the sixth group (positive control group) were given 0.3 DMSO/0.7 H2O. On day twelve, after carrying out EAC cells, mice were sacrificed, dissected, and change in tumor mass was evaluated by measuring the developed tumor mass volume using the formula [45, 46]:Tumor volume (mm^3) = 0.52 × length × (width)^2.(1)
# [2] = tested on: Ehrlich ascites carcinoma (EAC) cells; assay: In vitro cytotoxic activity, trypan blue dye exclusion; type: cell-based, mice; details: Mus musculus, Ehrlich, 3 h incubation at 37 °C
# Protocol: The synthesized indoloquinoline analogs 6a–d were evaluated for their cytotoxic activity against Ehrlich ascites carcinoma (EAC), as depicted in Table 1. The EAC cells used in this study were supplied by National Cancer Institute, Cairo, Egypt. The cells were maintained in vivo in Swiss Albino female mice by intraperitoneal transplantation (0.2 mL of 2 × 10^6 cells/mL). EAC cells were aspirated from the peritoneal cavity of mice, washed with saline and given intraperitoneally to develop ascites tumor. Trypan blue dye exclusion technique was used to figure the viability percentage of EAC cells to assay the cytotoxic activity of the studied compounds. In brief, under completely sterile conditions, EAC cells were separated away from the mice abdomens. Hank’s balanced salt solution (HBSS) was used to wash the separated cells. Cells were put in a cooling centrifuge at 1500 rpm for 15 min; the produced granules were put back into suspension using HBSS, the mentioned steps were done in triplicate. Finally, a measured volume of RPMI 1640 was used to suspend the cells, followed by the addition of 10% fetal bovine serum, 10 µg/mL streptomycin and 100 U/mL penicillin. Consequently, the cell count was adjusted to 2 × 10^6 cells/mL from the prepared diluted cell suspension 0.2 mL was titrated in 96 flat-bottomed tissue culture plates. Serial concentrations of each tested compound were prepared and added in triplicate and incubated at 37 °C for 3 h in a 5% CO2 atmosphere. The IC50 parameter (half-maximum inhibitory concentration) was calculated using Trypan blue dye exclusion test, and then the cytotoxic effect was evaluated using control EAC cells. Thalidomide was used as a reference drug alongside the parent natural compound neocryptolepine I for comparison. Thalidomide was used as a reference drug because its mechanism of action is expected to be similar to the mechanism of action of neocryptolepine analogs as its anticancer action may be based on its antiangiogenic action, resulting from specific DNA intercalation as well as induce cell cycle arrest.
# The percentage of EAC cell death of the synthesized derivatives was evaluated by trypan blue exclusion assay. In addition, the compounds 6a–d, as well as the reference drug thalidomide and the parent natural compound neocryptolepine (I), were evaluated through eight concentration levels. It is worth noting that this cytotoxicity was dose-dependent when compared to the reference drug, thalidomide and the control, which was treated with the corresponding dilutions of DMSO.
# As a preparation step to perform cytotoxicity assay against the EAC cell line, thalidomide, parent neocryptolepine and the indoloquinoline compounds a 6a, 6b, 6c and 6d were dissolved in DMSO/saline (0.3:0.7) to prepare a solution of 10 mmol concentration. The stock solutions were stored at 4 °C and were used all over the assay. EAC cells were supplied by the National Cancer Institute, Cairo, Egypt. The cells were maintained in vivo in Swiss albino female mice by intraperitoneal transplantation (0.2 mL of 2 × 10^6 cells/mL). EAC cells were aspirated from the peritoneal cavity of mice, washed with saline, and given intraperitoneally to develop ascites tumor.
# Trypan blue dye exclusion technique was used to figure the viability percentage of EAC cells to assay the cytotoxic activity of the studied compounds. In brief, under completely sterile conditions, EAC cells were separated away from the mice’s abdomen. Hank’s balanced salt solution (HBSS) was used to wash the separated cells. The cells were put in a cooling centrifuge at 1500 rpm for 15 min; the produced granules were put back into suspension using HBSS, the mentioned steps were done in triplicate. Finally, a measured volume of RPMI 1640 was used to suspend the cells, followed by the addition of 10% fetal bovine serum, 10 µg/mL streptomycin and 100 U/mL penicillin and the cell count was adjusted to 2 × 10^6 cells/mL. […]
# MG-63 cells = tested on: MG-63 cells; set-up: method as in PMID 18951804, PMID 2953123; details: ref [34],[35]; cited from earlier work
# [3] = tested on: solid-tumor (EAC) bearing mice (liver homogenate); assay: Lipid peroxidation and antioxidant enzymes in liver homogenate of solid-tumor bearing mice; type: in vivo, Swiss female albino mice; details: 100 mg/kg for 5 days, liver
# Protocol: Measuring antioxidant enzyme levels and lipid peroxidation was utilized to evaluate the pharmacological effect of indoloquinoline derivatives. The study group was divided into two subgroups, normal mice and tumor-bearing mice. Each subgroup is further subdivided into two groups, one group received indoloquinoline derivatives, and the other group was marked as a placebo group.
# After administration of indoloquinoline analogs 6a, 6b, 6c and 6d at a dose of 100 mg/kg for 5 constitutive days to mice with EAC, the levels of lipid peroxidation were highly significant less than that of the positive control group (p < 0.001). Meanwhile, the level of SOD in the liver homogenate of positive bearing mice was 32.1% (p < 0.001) less than that of the normal group (Table 5).
# The eradicated liver was double washed first, with ice-cold normal saline then, with cold 0.15 mol/L Tris-HCl buffer (pH 7.4). The clean organ was dried and weighed, and used to prepare a 10% w/v homogenate in 0.15 mol/L Tris-HCl buffer. A portion of the prepared homogenate was centrifuged at 1500 rpm for 15 min at 4 °C [47] and used for estimating lipid peroxidation, SOD [48] and CAT [49] analysis was carried out using the supernatant.
IC50 [1],SMILES,reduction percentage in tumor volume (EAC-induced solid tumor),IC50 [2],effect on cell cycle (MG-63 cells),CAT [3],Lipid Peroxidation [3],SOD [3]
0.042 nM,"O=C1O[C@H]([C@@H](O)CO)C(O)=C1O [Ascorbic acid, ascorbic acid]",,,,,,
,"O=C1CCC(N2C(=O)c3ccccc3C2=O)C(=O)N1 (centres unmarked) [Thalidomide, reference compound]",67.20%,0.26 nM,induced cell cycle arrest by increasing the number of cells in the G0/G1 phase and decreasing the percentage of S phase,5.8 ± 1.5 KU/mg Tissue/s,330.2 ± 8.1 nmol MDA/g Tissue,108.4 ± 10.2 U/g Tissue
,"Cn1c2nc3ccccc3c-2cc2ccccc21 [Neocryptolepine, 5-methyl-5H-indolo[2,3-b] quinoline]",,0.54 nM,,,,

# From publication PMC7867085, “In Vitro and In Vivo Antitumor Activity of Indolo[2,3-b] Quinolines, Natural Product Analogs from Neocryptolepine Alkaloid” (Molecules, 2021)
